Data reported in patent publication US6706947B2, “Method for screening for agents against cancer using an immunosuppression animal model” (Fremantle Hospital, priority 1996, dated 2004).
Converted amounts (≈) assume the structure as drawn.

Legend:
B16M = conditions: day 3 in culture, MTT
[1] = Steady-state plasma concentrations of ketoconazole in sheep (hplc); format: in vivo
Protocol: Following the first dose on the first study day, venous blood samples (5 ml, anticoagulated with EDTA) were collected at 0.17, 0.33, 0.5, 0.75, 1, 2, 3, 4, 6, 8, 12, 15, 22, 27 and 32 h. […] Ketoconazole administration was continued throughout the latter blood sampling period.
Some blood samples taken on days 18-23 were centrifuged to yield plasma which was frozen at −20° C. until analysed for ketoconazole by a specific hplc method. Aliquots of plasma (0.1 ml) were vortexed vigorously with 1 ml acetonitrile (containing 8 mg of fluoxetine hydrochloride as internal standard) for 15 sec. The mixture was centrifuged at 1200 g for 10 min to sediment proteins, 0.5 ml of the supernatant was aspirated, transferred to a clean tube and evaporated to dryness at 50° C. using dry N2. The extract was reconstituted in 0.2 ml of hplc mobile phase and 0.02 ml aliquots were injected onto the hplc column. The hplc system consisted of a Merck RP Select B C18 column (25 cm×4.6 mm id), a mobile phase of 55% acetonitrile in 0.01% v/v H3PO4 and 0.01% W/V NaCl. The solvent was pumped at a flow rate of 1.5 ml/min and eluting compounds were detected by their UV absorbence at 210 nm.

HT-29 = conditions: HT-29, day 3 in culture, MTT
SKMEL = conditions: day 3 in culture, MTT
[2] = literature (Borel, 1989; Reynolds et al, 1992; Eichenberger et al, 1989a); cited from earlier work

Steady-state concentration of ketoconazole in plasma (mean of trough samples) ([1]; sheep 14, days 18-23, ketoconazole 10 mg/kg po twice daily): 2.6 mg/L | Steady-state concentration of ketoconazole in plasma (mean of trough samples) ([1]; sheep 15, days 18-23, ketoconazole 10 mg/kg po twice daily): 2.19 mg/L | Steady-state concentration of ketoconazole in plasma (mean of trough samples) ([1]; sheep 16, days 18-23, ketoconazole 10 mg/kg po twice daily): 1.63 mg/L | Steady-state concentration of ketoconazole in plasma (mean of trough samples) ([1]; sheep 17, days 18-23, ketoconazole 10 mg/kg po twice daily): 3.04 mg/L
Structure (SMILES): CC(=O)N1CCN(c2ccc(OCC3COC(Cn4ccnc4)(c4ccc(Cl)cc4Cl)O3)cc2)CC1 (centres unmarked) [Ketoconazole]
ED50 (± SD) (B16M): 18.2 ± 3.9 µg/mL (≈ 34.2 µM) | ED50 (± SD) (HT-29): 12.7 ± 2.0 µg/mL (≈ 23.9 µM) | ED50 (± SD) (SKMEL): 28.3 ± 1.7 µg/mL (≈ 53.3 µM) | Maximum therapeutic plasma concentration [2]: 0.10 µg/mL
